Calls of active or inactive are those of the source. The rule behind the calls is not given here.

In assay [1] the test system is MCF7. Description: Antiproliferative activity against human MCF7 cells after 5 days by WST-8 assay. It is filed as functional, cell-based. (Tetrazolium dyes change colour on reduction, which living cells bring about.)
Assay [2] relates to MCF7. Description: Estrogenic activity in human MCF7 cells. It is filed as functional, cell-based.
The subject of assay [3] is MCF7. Briefly: Ratio of tamoxifen IC50 to compound IC50 for human MCF7 cells. It is filed as functional.
The mark [4] stands for this setting: Homo sapiens, MCF7, 120 h, read-out: IC50.

The IC50 is the midpoint of a concentration-inhibition curve. Turning to `O=S(=O)(c1ccccc1)N(c1ccc(O)cc1)c1ccc(OCCN2CCCCC2)cc1`, the Activity result in assay [1] was “Dose-dependent effect”. For the same molecule, the IC50 in assay [1] (setting [4]) is 320 nM. Besides, the outcome in assay [2] was inactive.

On to `CCCCCCN(c1ccc(O)cc1)c1ccc(OCCN(CC)CC)cc1`, for which the Activity result in assay [1] is “Dose-dependent effect”. Further, the IC50 in assay [1] (setting [4]) is 1400 nM. For the same molecule, the outcome in assay [2] was inactive.

On to `CCN(CC)CCOc1ccc(N(c2ccc(O)cc2)S(=O)(=O)c2ccccc2)cc1`, for which the Activity result in assay [1] is “Dose-dependent effect”. For the same molecule, the IC50 in assay [1] (setting [4]) was 1300 nM. Besides, the outcome in assay [2] was inactive.

As for `CN(C)CCOc1ccc(N(c2ccc(O)cc2)S(=O)(=O)c2ccccc2)cc1`, the Activity entry in assay [1] was “Dose-dependent effect”. Besides, the IC50 in assay [1] (setting [4]) is 9300 nM. In addition, the result in assay [2] was inactive.

For the molecule `CCCCCCN(c1ccc(O)cc1)c1ccc(OCCN2CCCC2)cc1`, in assay [1], the Activity entry is “Dose-dependent effect”. Besides, the IC50 in assay [1] (setting [4]) is 2700 nM. Also, the outcome in assay [2] was inactive.

As for `CCCCCCN(c1ccc(O)cc1)c1ccc(OCCN2CCCCCC2)cc1`, the Activity entry in assay [1] is “Dose-dependent effect”. Also, the IC50 in assay [1] (setting [4]) stood at 1400 nM. Moreover, in assay [2], the result was inactive.

Take `Oc1ccc(N(Cc2ccccc2)c2ccc(OCCN3CCCCC3)cc2)cc1`: the Activity entry in assay [1] is “Dose-dependent effect”. Moreover, the IC50 in assay [1] (setting [4]) stood at 800 nM. The result in assay [2] was inactive.

`Oc1ccc(N(Cc2ccccc2)c2ccc(OCCN3CCCCCC3)cc2)cc1`: the Activity entry in assay [1] is “Dose-dependent effect”. The IC50 in assay [1] (setting [4]) came to 660 nM. Further, the outcome in assay [2] was inactive.

In the case of `O=S(=O)(c1ccccc1)N(c1ccc(O)cc1)c1ccc(OCCN2CCCC2)cc1`, the Activity entry in assay [1] was “Dose-dependent effect”. The IC50 in assay [1] (setting [4]) is 500 nM. For the same molecule, in assay [2], the result was inactive.

With `Oc1ccc(N(Cc2ccccc2)c2ccc(OCCN3CCCC3)cc2)cc1`, the Activity result in assay [1] was “Dose-dependent effect”. Further, the IC50 in assay [1] (setting [4]) is 1300 nM. Further, the result in assay [2] was inactive.

Regarding `CN(C)CCCOc1ccc(N(c2ccc(O)cc2)S(=O)(=O)c2ccccc2)cc1`, the Activity entry in assay [1] is “Dose-dependent effect”. The IC50 in assay [1] (setting [4]) came out at 2200 nM. For the same molecule, the result in assay [2] was inactive.

In the case of `CCCCCCN(c1ccc(O)cc1)c1ccc(OCCN2CCCCC2)cc1`, the Activity result in assay [1] was “Dose-dependent effect”. Further, the IC50 in assay [1] (setting [4]) was determined as 130 nM. For the same molecule, the outcome in assay [2] was inactive. The “Ratio IC50” value in assay [3] worked out at 10.

`CCCCCCN(c1ccc(O)cc1)c1ccc(OCCN(C)C)cc1`: the Activity result in assay [1] was “Dose-dependent effect”. For the same molecule, the IC50 in assay [1] (setting [4]) was found to be 2400 nM. Also, the result in assay [2] was inactive.

For `CN(C)CCOc1ccc(N(Cc2ccccc2)c2ccc(O)cc2)cc1`, in assay [1], the Activity result is “Dose-dependent effect”. Moreover, in assay [1] (setting [4]), the IC50 was determined as 4400 nM. In assay [2], the result was inactive.

In the case of `CCC(=C(c1ccc(O)cc1)c1ccc(OCCN(C)C)cc1)c1ccccc1`, the Activity result in assay [1] was “Dose-dependent effect”. Besides, in assay [1] (setting [4]), the IC50 is 8900 nM.

Regarding `CC/C(=C(\c1ccccc1)c1ccc(OCCN(C)C)cc1)c1ccccc1` [TAMOXIFEN], the Activity entry in assay [1] was “Dose-dependent effect”. In addition, the IC50 in assay [1] (setting [4]) came out at 2100 nM.

For the molecule `CN(C)CCCOc1ccc(N(Cc2ccccc2)c2ccc(O)cc2)cc1`, in assay [1], the Activity result was “Dose-dependent effect”. In addition, in assay [1] (setting [4]), the IC50 amounted to 2800 nM. Moreover, in assay [2], the result was inactive.

With `CCCCCCN(c1ccc(O)cc1)c1ccc(OCCCN(C)C)cc1`, the Activity result in assay [1] is “Dose-dependent effect”. In addition, the IC50 entry in assay [1] (mcf7) is “Not Active”. The outcome in assay [2] was inactive.

On to `CCN(CC)CCOc1ccc(N(Cc2ccccc2)c2ccc(O)cc2)cc1`, for which the Activity entry in assay [1] is “Dose-dependent effect”. Further, in assay [1] (setting [4]), the IC50 worked out at 1900 nM. Also, the outcome in assay [2] was inactive.

Values taken from ChEMBL document CHEMBL3396984, “Structure-activity relationship study of diphenylamine-based estrogen receptor (ER) antagonists” (Bioorg Med Chem, 2015).
